Source: patent US12473293B2, “Pharmacologically active heterocyclic-substituted pyrazolo[1,5-a]pyrimidine derivatives” (Richter Gedeon Nyrt., priority 2020, dated 2025)

What was measured:
GABAB receptor = biological target: T1, GABAB receptor (Rattus norvegicus, UniProt O88871+Q9Z0U4); assay: In vitro [35S]GTPγS binding assay in rat cortical membranes; format: biochemical; conditions: PAM EC50, [35S]GTPγS binding, read-out: In vitro PAM potency
T1 construct: from tissue; host or cells: rat brain cortex membranes
T1 sequence (O88871 41-940): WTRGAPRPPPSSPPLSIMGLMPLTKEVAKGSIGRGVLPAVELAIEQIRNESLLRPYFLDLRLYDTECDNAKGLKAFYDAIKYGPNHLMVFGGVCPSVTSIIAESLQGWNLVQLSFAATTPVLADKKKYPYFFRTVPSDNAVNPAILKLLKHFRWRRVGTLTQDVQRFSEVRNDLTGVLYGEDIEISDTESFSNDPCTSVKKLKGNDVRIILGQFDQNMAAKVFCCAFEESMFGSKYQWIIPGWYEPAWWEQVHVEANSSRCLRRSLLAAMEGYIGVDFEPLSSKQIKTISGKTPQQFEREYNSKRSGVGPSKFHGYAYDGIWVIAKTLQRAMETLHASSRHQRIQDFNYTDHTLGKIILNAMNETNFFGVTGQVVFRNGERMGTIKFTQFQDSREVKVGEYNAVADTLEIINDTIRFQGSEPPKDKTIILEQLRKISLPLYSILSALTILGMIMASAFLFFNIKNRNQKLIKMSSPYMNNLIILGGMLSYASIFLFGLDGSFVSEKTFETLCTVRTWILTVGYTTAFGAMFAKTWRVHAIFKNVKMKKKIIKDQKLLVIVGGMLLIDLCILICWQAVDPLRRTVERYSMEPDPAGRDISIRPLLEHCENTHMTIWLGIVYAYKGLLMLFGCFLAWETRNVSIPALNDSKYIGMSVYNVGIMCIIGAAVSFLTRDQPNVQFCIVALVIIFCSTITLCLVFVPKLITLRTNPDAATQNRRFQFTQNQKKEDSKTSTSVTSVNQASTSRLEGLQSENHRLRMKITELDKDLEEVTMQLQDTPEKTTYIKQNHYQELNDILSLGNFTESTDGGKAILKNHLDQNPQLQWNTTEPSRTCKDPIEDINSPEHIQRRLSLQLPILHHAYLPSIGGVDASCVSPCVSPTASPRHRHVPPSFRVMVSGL
T1 sequence (Q9Z0U4 17-960 limits assumed): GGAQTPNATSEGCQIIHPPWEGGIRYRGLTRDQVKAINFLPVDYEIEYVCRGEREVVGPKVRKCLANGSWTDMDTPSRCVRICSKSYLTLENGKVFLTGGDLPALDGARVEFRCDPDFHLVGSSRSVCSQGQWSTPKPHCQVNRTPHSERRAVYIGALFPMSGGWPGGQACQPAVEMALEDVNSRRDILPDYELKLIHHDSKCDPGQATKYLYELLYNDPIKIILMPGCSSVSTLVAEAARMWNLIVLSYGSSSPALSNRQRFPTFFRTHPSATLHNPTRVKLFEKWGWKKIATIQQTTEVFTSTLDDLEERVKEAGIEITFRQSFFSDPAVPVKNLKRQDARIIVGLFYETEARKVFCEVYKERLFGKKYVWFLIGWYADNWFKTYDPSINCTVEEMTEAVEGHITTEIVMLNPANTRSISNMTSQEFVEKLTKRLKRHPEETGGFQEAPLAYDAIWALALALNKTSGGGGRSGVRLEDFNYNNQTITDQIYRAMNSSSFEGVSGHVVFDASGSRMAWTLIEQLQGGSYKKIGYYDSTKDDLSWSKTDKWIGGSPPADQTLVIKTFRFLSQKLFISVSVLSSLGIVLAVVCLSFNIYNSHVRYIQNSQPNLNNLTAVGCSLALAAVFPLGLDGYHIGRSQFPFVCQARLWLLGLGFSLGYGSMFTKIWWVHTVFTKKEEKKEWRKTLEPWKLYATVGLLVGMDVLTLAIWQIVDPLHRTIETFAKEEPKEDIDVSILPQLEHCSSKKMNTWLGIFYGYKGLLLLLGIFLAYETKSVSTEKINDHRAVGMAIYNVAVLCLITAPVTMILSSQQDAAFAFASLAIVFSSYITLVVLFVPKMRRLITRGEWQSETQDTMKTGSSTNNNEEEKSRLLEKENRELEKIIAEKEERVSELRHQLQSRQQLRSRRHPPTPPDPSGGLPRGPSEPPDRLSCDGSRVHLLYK
Description: In Vitro [^35S]GTPγS Binding Assay in Rat Cortical Membranes
Cortices of freshly harvested rat brains were dissected on an ice-cold surface and homogenized by a glass Dounce homogeniser immediately in ice-cold buffer containing 50 mM Tris, 5 mM MgCl2 and 1 mM EDTA (pH=7.6). Tissue homogenates were centrifuged at 40000 g for 15 min at 4° C. Membrane pellets were resuspended in the same buffer and membranes were incubated for 10 min at 30° C. in a shaking water bath to eliminate endogenous GABA. Homogenates were centrifuged again under the same conditions. The final pellets were resuspended in ice-cold buffer (pH=7.6) containing 50 mM Tris, 100 mM NaCl, 7 mM MgCl2, 1 mM EDTA and 1 mM dithiotreithol (DTT) to yield a concentration of 20 mg tissue weight/ml and frozen at −70° C. until use. The assay was done in a buffer containing 50 mM Tris (pH=7.4), 100 mM NaCl, 7 mM MgCl2, 1 mM EDTA and 1 mM DTT. Each assay tube contained 150 μL GDP (in a final concentration of 50 μM), 100 μL ligand and 125 μL of the membrane suspension ([…]). The assay tubes were preincubated for 10 min at 30° C. to assure equilibrium. Nonspecific binding was determined in the presence of 10 μM GTPγS; basal binding was determined in the presence of buffer only. After addition of […] [^35S]GTPγS in a volume of 25 μL to the tubes, membranes were incubated for an additional 60 min at 30° C. The assay was terminated by rapid filtration through Packard UniFilter GF/B using a Packard harvester and washed four times with 1 ml ice-cold buffer. After drying the filters at 40° C. for 1 h, 40 μL Microscint (Packard) was added to the filters and radioactivity of the filters was determined by a TopCount NXT (PerkinElmer, Waltham, MA; Alper and Nelson, Eur. J. Pharmacol. 1998, 343, 303-312; Rinken et al, Biochem. Pharmacol. 1999, 57, 155-162). Data thus gathered were used to determine PAM EC50 values for each compound as primary in vitro activity end point.
In Table 1 compounds of this invention measured in the [^35S]GTPγS binding assay are listed.

male Wistar rats = assay: Foot shock-induced ultrasonic vocalization (USV) in adult rats; format: in vivo; conditions: Rattus norvegicus, po, p.o., 1 h before shocking
Description: Foot Shock-Induced Ultrasonic Vocalization (USV) in Adult Rats
Under stressful conditions, adult rats emit 22 kHz ultrasounds that can be reduced by various pharmacological treatments (De Vry et al, Eur. J. Pharmacol. 1993, 249, 331-339; Sanchez, Eur. J. Pharmacol. 2003, 463, 133-143). […] Therefore, a foot shock-induced vocalization paradigm in adult rats was used to assess in vivo efficacy of centrally acting GABAB receptor ligands. Behavioral measurements were carried out on male Wistar rats (200-250 g, Toxicoop, Hungary or Janvier, France). Rats were housed in groups of four in plastic cages with a wire grid top in a temperature and light-controlled laboratory animal care unit (22±2° C., 12-h light/dark cycle, lights on at 6:00 AM) with ad libitum access to commercial pellet rat food and tap water. Investigations were approved by the Local Ethical Committee of Gedeon Richter Plc. and were carried out in strict compliance with the European Directive 2010/63/EU regarding the care and use of laboratory animals for experimental procedures and all efforts were made to minimize the number of animals as well as their suffering. In order to evoke emission of ultrasounds, animals were footshocked after a habituation period of 30 s (6 shocks, 1 s, 0.8 mA each, inter-shock interval 10 s) in a sound attenuated shocking chamber (Experimetria, 40×40×80 cm). […] Vocalizations were measured right after the last footshock for 10 min with a Metris Sonotrack system and the total time of vocalizations was registered. Vocalization of parallel vehicle treated animals was considered as control value and inhibition percent was calculated for each compound.
In Table 2 compounds of this invention measured in the USV assay are listed.

EC50 (GABAB receptor) [nM] | Structure (SMILES) | inhibition in vivo at 3 mg/kg (male Wistar rats) [%] | inhibition in vivo at 1 mg/kg (male Wistar rats) [%] | inhibition in vivo at 10 mg/kg (male Wistar rats) [%]
100 to 1000 | CC(=O)N1CCC[C@@H](c2cc(C)nc3cc([C@H]4CC[C@H](C(F)(F)F)CC4)nn23)C1 [Example 32] | 68 | – | –
< 100 | COC(=O)N1CCO[C@@H](c2cc(C)nc3cc([C@H]4CC[C@H](C(F)(F)F)CC4)nn23)C1 [Example 91] | – | 89 | –
100 to 1000 | CNC(=O)N1CCO[C@@H](c2cc(C)nc3cc([C@H]4CC[C@H](C(F)(F)F)CC4)nn23)C1 [Example 111] | – | 44 | –
100 to 1000 | Cc1cc([C@H]2CN(C(=O)N(C)C)CCO2)n2nc([C@H]3CC[C@H](C(F)(F)F)CC3)cc2n1 [Example 112] | – | 72 | –
100 to 1000 | Cc1cc([C@H]2CN(C(=O)c3cocn3)CCO2)n2nc([C@H]3CC[C@H](C(F)(F)F)CC3)cc2n1 [Example 113] | – | 66 | –
100 to 1000 | CCOC(=O)N1CCO[C@@H](c2cc(C)nc3cc([C@H]4CC[C@H](C(F)(F)F)CC4)nn23)C1 [Example 116] | – | 0 | –
100 to 1000 | Cc1cc([C@H]2CN(C(=O)c3cscn3)CCO2)n2nc([C@H]3CC[C@H](C(F)(F)F)CC3)cc2n1 [Example 121] | – | – | –
100 to 1000 | Cc1cc([C@H]2CN(C(=O)c3nnc(C)o3)CCO2)n2nc([C@H]3CC[C@H](C(F)(F)F)CC3)cc2n1 [Example 123] | – | – | –
≥ 10000 | COC(=O)N1C[C@@H](c2cc(C)nc3cc([C@H]4CC[C@H](C(F)(F)F)CC4)nn23)O[C@@H](C)C1 [Example 124] | – | – | –
100 to 1000 | COC(=O)N1C[C@H](C)O[C@@H](c2cc(C)nc3cc([C@H]4CC[C@H](C(F)(F)F)CC4)nn23)C1 [Example 125] | – | – | –
100 to 1000 | COC(=O)N1CCSC(c2cc(C)nc3cc([C@H]4CC[C@H](C(F)(F)F)CC4)nn23)C1 (stereo partly drawn) [Example 126, methyl 2-{5-methyl-2-[trans-4-(trifluoromethyl)cyclohexyl]pyrazolo[1,5-a]pyrimidin-7-yl}thiomorpholine-4-carboxylate] | – | – | –
100 to 1000 | COC(=O)N1CCO[C@H](c2cc(C)nc3c(F)c([C@H]4CC[C@H](C(F)(F)F)CC4)nn23)C1 [Example 130] | – | – | –
< 100 | COC(=O)N1CCO[C@@H](c2cc(C)nc3cc([C@H]4CC[C@H](C(C)(C)C)CC4)nn23)C1 [Example 132] | – | 65 | –

More lines, now with the values behind:

Structure (SMILES) | EC50 (GABAB receptor) [nM] | inhibition in vivo at 3 mg/kg (male Wistar rats) [%] | inhibition in vivo at 1 mg/kg (male Wistar rats) [%] | inhibition in vivo at 10 mg/kg (male Wistar rats) [%]
CC(=O)N1CC[C@H](C)[C@H](c2cc(C)nc3c(F)c([C@H]4CC[C@H](C(F)(F)F)CC4)nn23)C1 (racemic) [Example 158] | 100 to 1000 | 35 | – | –
COC(=O)N1CC[C@@H](C)[C@H](c2cc(C)nc3cc([C@H]4CC[C@H](C(F)(F)F)CC4)nn23)C1 (single isomer, unassigned) [Example 5] | < 100 | – | 88 | –
Cc1cc([C@H]2CN(C=O)CC[C@H]2C)n2nc([C@H]3CC[C@H](C(F)(F)F)CC3)cc2n1 (single isomer, unassigned) [Example 9] | < 100 | – | 71 | –
CCc1c(C)nc2cc([C@H]3CC[C@H](C(F)(F)F)CC3)nn2c1[C@@H]1CCCN(C(C)=O)C1 [Example 39] | 100 to 1000 | 33 | – | –
CCc1c(C)nc2cc([C@H]3CC[C@H](C(F)(F)F)CC3)nn2c1[C@H]1CCCN(C(C)=O)C1 [Example 42] | < 100 | – | – | 91
CC(=O)N1CCC[C@H](c2c(C)c(C)nc3cc([C@H]4CC[C@H](C(F)(F)F)CC4)nn23)C1 [Example 43] | 100 to 1000 | – | – | 41
COC(=O)N1CCC[C@@H](c2c(C)c(C)nc3cc([C@H]4CC[C@H](C(F)(F)F)CC4)nn23)C1 [Example 47] | 100 to 1000 | – | – | 63
Cc1nc2cc([C@H]3CC[C@H](C(F)(F)F)CC3)nn2c([C@@H]2CN(C=O)CC[C@@H]2C)c1C [Example 58] | < 100 | – | 44 | –
CCc1c(C)nc2cc([C@H]3CC[C@H](C(F)(F)F)CC3)nn2c1[C@@H]1CN(C(C)=O)CC[C@@H]1C [Example 66] | < 100 | – | 49 | –
Cc1cc([C@H]2CN(C=O)CC[C@@H]2C)n2nc([C@H]3CC[C@H](C(F)(F)F)CC3)cc2n1 [Example 68] | < 100 | – | 39 | –
Cc1nc2cc([C@H]3CC[C@H](C(F)(F)F)CC3)nn2c(C2CN(C=O)CC(F)(F)C2)c1C (some centres unmarked) [Example 75] | < 100 | – | 19 | –
CCc1c(C)nc2cc([C@H]3CC[C@H](C(F)(F)F)CC3)nn2c1C1CN(C=O)CCO1 (some centres unmarked) [Example 82] | < 100 | – | 86 | –
COC(=O)N1CCO[C@@H](c2cc(C)nc3c(F)c([C@H]4CC[C@H](C(F)(F)F)CC4)nn23)C1 [Example 117] | < 100 | – | 73 | –
COC(=O)N1C[C@@H](c2cc(C)nc3cc([C@H]4CC[C@H](C(F)(F)F)CC4)nn23)OC[C@@H]1C(C)C [Example 122] | 100 to 1000 | – | – | –
COC(=O)N1C[C@H](c2cc(C)nc3cc([C@H]4CC[C@H](C(F)(F)F)CC4)nn23)OC[C@@H]1C(C)C [Example 127] | 100 to 1000 | – | – | –
COC(=O)N1CC[C@@H](C)[C@H](c2cc(C)nc3c(F)c([C@H]4CC[C@H](C(F)(F)F)CC4)nn23)C1 [Example 128] | 1000 to 10000 | – | – | –
COC(=O)N1CC[C@H](C)[C@@H](c2cc(C)nc3c(F)c([C@H]4CC[C@H](C(F)(F)F)CC4)nn23)C1 [Example 129] | 100 to 1000 | – | – | –
